Test results taken from publication PMC11574021, “CEP192 localises mitotic Aurora-A activity by priming its interaction with TPX2” (The EMBO Journal, 2024).

Key:
Format in all cases: cell-based, Homo sapiens
[1] = test system: PPP1CA-pT320, PRC1-pT481 and Histone-H3-pS10 in U251 cells; experiment: Western blot, mitotic phosphorylations (PPP1CA-pT320, PRC1-pT481, Histone-H3-pS10), asynchronous U251; conditions: asynchronous U251, siRNA 48 h
Experimental: Cells were lysed on ice for 30 min in lysis buffer (50 mM tris pH 8.0, 300 mM NaCl, 0.2%(v/v) NP-40, 10%(v/v) glycerol, protease inhibitor cocktail C, phosphatase inhibitor cocktail 3 (Sigma, 1:200 dilution), 100 nM okadaic acid (Enzo, ALX-350-003-C100)). Lysates were then centrifuged at 14,000 × g, 15 min, 4 °C, the supernatants were transferred to a fresh tube, and the pellet was discarded. Protein concentrations were measured by Bradford assay using Protein Assay Dye Reagent Concentrate (Bio-Rad Laboratories, 5000006). NuPage LDS sample buffer, supplemented with NuPAGE sample reducing agent (Invitrogen) were added prior to boiling for 10 min at 90 °C. Equal amounts of protein, between 8–20 µg/lane, were loaded into pre-cast 4–12% Bis-Tris gels (Invitrogen, NP0322BOX) and proteins separated in 1x MOPS buffer (Invitrogen) and transferred to nitrocellulose membrane (0.45 µM). Nitrocellulose was then blocked in 5% milk (wt/v) in TBS, 0.1% Tween (v/v) (TBST) for 1 h. Primary and secondary antibodies were diluted in 5% milk, TBST and incubated overnight at 4 °C or for 1 h at room temperature, respectively. Species-specific secondary antibodies conjugated to horseradish peroxidase (HRP) were used (anti-Mouse, Cytiva NA931V; anti-Rabbit, Cytiva NA934; anti-Sheep, Jackson 713-035-003). Membranes were washed for 1 h in TBST, changing the buffer five times, after each antibody incubation.
siRNA depletion was carried out by reverse transfection using oligofectamine (Thermo Scientific, 12252011) and lipofectamine RNAiMax (Thermo Scientific, 13778075), according to the manufacturer’s instructions, for U251 and RPE1 cells, respectively. For immunofluorescence, 1 × 10^5 cells were seeded in six-well plates and simultaneously transfected with 60 pmol siRNA duplex and 3 µl transfection reagent diluted in 200 µl Opti-MEM serum-free medium. Growth medium was added to a final volume of 2 ml. For western blotting, 1 × 10^6 cells were seeded in 10 cm dishes and transfected with 300 pmol siRNA duplex and 15 µl transfection reagent diluted in 1000 µl Opti-MEM. […]

[2] = test system: TACC3 in RPE1 p53-/- cells; experiment: Immunofluorescence, TACC3 spindle signal intensity, RPE1 p53-/-; conditions: Aurora-A inhibitor 30 min or siRNA 48 h
Experimental: (§1) As noted in the figures, the following drugs were incubated with cells for 30 min at 37 °C: Aurora-B-i ZM447439 2 µM [10 mM], PLK1-I BI2536 1 µM [10 mM] and Aurora-A-i MLN8237 [5 mM] was used at 250 and 500 nM in U251 and RPE1 cells, respectively. Drugs were resuspended in DMSO to the stock concentrations indicated in square brackets. BI2536 (HY-50698), MLN8237 (HY-10971) and ZM447439 (HY-10128) were all purchased from MedChemExpress. For western blotting, a 20-min pre-treatment with proteasome inhibitor (20 µM MG-132, MerckMillipore, 47490 [20 mM]) was required prior to the addition of DMSO control or kinase inhibitors. This prevented mitotic exit as a consequence of checkpoint override following Aurora-A and Aurora-B inhibitor addition.
siRNA depletion was carried out by reverse transfection using oligofectamine (Thermo Scientific, 12252011) and lipofectamine RNAiMax (Thermo Scientific, 13778075), according to the manufacturer’s instructions, for U251 and RPE1 cells, respectively. For immunofluorescence, 1 × 10^5 cells were seeded in six-well plates and simultaneously transfected with 60 pmol siRNA duplex and 3 µl transfection reagent diluted in 200 µl Opti-MEM serum-free medium. Growth medium was added to a final volume of 2 ml. […]

[3] = test system: Aurora-A-pT288 in U251 cells; experiment: Western blot densitometry of Aurora-A-pT288, mitotic U251 cells; conditions: mitotic U251 (and RPE1) lysates, siRNA 48 h, in words
Experimental: For western blotting analysis of mitotic lysates, cells were synchronised in mitosis with 10 µM S-Trityl-L-cysteine (STLC, Bio-Techne, 2191-50), an Eg5 inhibitor, for 20 h prior to collecting by mitotic shake-off. For measuring monopolar spindle diameter and counting centriolar foci by immunofluorescence, cells were treated with 10 µM STLC for 1 h and 4 h prior to fixation, respectively.
as §1
Cells were lysed on ice for 30 min in lysis buffer (50 mM tris pH 8.0, 300 mM NaCl, 0.2%(v/v) NP-40, 10%(v/v) glycerol, protease inhibitor cocktail C, phosphatase inhibitor cocktail 3 (Sigma, 1:200 dilution), 100 nM okadaic acid (Enzo, ALX-350-003-C100)). Lysates were then centrifuged at 14,000 × g, 15 min, 4 °C, the supernatants were transferred to a fresh tube, and the pellet was discarded. Protein concentrations were measured by Bradford assay using Protein Assay Dye Reagent Concentrate (Bio-Rad Laboratories, 5000006). NuPage LDS sample buffer, supplemented with NuPAGE sample reducing agent (Invitrogen) were added prior to boiling for 10 min at 90 °C. […]
Densitometric quantification of western blots was also performed in ImageJ. Intensity was measured in a rectangular region of interest (ROI) around each band. […] An adjacent region was also measured to account for background intensity.

Row | Compound | mitotic phosphorylations (PPP1CA-pT320, PRC1-pT481, Histone-H3-pS10) [1] | spindle recruitment of TACC3 [2] | activation loop phosphorylation (pT288) of Aurora-A in mitotic cell lysates [3]
1 | 5′-CGGUAGUGAUAAAAGCUCAtt-3′ [siTPX2] | increased levels of mitotic phosphorylations | fully prevented both spindle recruitment of TACC3 | strongly reduced activation loop phosphorylation (pT288) of Aurora-A
2 | COc1cc(Nc2ncc3c(n2)-c2ccc(Cl)cc2C(c2c(F)cccc2OC)=NC3)ccc1C(=O)O [Alisertib] | – | abrogated spindle recruitment of TACC3 | –
3 | 5′-CAAACAACUUGGAAAUCGAtt-3′ [siCEP192] | increased levels of mitotic phosphorylations | – | comparable reduction in pT288 Aurora-A levels to that of TPX2
